# ChEMBL document CHEMBL1201862, “PubChem BioAssay data set” (2004)
# The source made the active and inactive calls.
# How the values were obtained:
# Kallikrein-7 = Kallikrein-7 (Homo sapiens, UniProt P49862); assay: Fluorescence Intensity-based biochemical primary high throughput dose response assay to identify activators of kallikrein-7 (K7) zymogen.
# [1] = optical artefact potency, substrate without enzyme – biochemical, fluorescence intensity, triplicate, artefact control for kallikrein-7 zymogen activator project, dose response (AID 720493)
# [2] = HEK-293T viability loss, compound-treated – cell-based, uHTS hits, cytotoxicity control for B/T-cell NF-kB inhibitor project, dose response (AID 489019); assay type: functional;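 note: IC50 reflects cytotoxicity as loss of cell viability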
# cells [3] = assay type: functional, cell-based; settings: HEK-CNG
# [4] = blockers of HIV-1 ZM109 envelope-driven cell-cell fusion – HeLa effector, CEM target cells, luciferase, cherry-pick, dose response (AID 652058); assay type: functional, cell-based;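 note: luciferase signal from HIV-1 Env mediated cell-cell fusion of effector and target cells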
# [5] = blockers of HIV-1 envelope-mediated cell-cell fusion – cherry-pick, dose response (AID 652057); assay type: functional, cell-based
# [6] = off-target signal loss in HeLa-CEM21 co-culture – HeLa F-luc CTL cells, cherry-picked, counter-screen for HIV-1 Env fusion inhibitor project, dose response (AID 652040); assay type: functional, cell-based;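 note: potency for signal decrease marking cytotoxic or nonspecific inhibition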
# Jurkat = assay: blockers of NF-kB activation in T cells – Jurkat, luciferase reporter, luminescence, B- and T-cell, dose response (AID 489004); assay type: functional, cell-based; settings: Homo sapiens;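 note: NF-kB luciferase reporter Jurkat cells stimulated with PMA plus ionomycin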
# Galanin receptor type 3 = Galanin receptor type 3 (Homo sapiens, UniProt O60755); assay: Fluorescence-based cell-based primary high throughput dose response assay to identify antagonists of the Galanin Receptor 3 (GalR3).; assay type: functional
# Sequence of Galanin receptor type 3 (O60755 whole entry, the tested form may be a part): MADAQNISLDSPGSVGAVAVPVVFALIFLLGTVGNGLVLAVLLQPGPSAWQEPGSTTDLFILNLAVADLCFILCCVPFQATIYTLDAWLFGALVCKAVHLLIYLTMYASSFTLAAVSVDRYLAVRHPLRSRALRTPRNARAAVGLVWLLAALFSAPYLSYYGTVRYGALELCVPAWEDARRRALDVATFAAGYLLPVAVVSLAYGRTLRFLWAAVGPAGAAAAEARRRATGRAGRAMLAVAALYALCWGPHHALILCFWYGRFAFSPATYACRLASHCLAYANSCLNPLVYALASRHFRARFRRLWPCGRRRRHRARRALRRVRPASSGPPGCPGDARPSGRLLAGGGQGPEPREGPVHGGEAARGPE
# [7] = HIV-1 AD8 envelope cell-cell fusion blockers – cherry-pick, dose response (AID 652062); assay type: functional, cell-based;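 note: luciferase signal from cell-cell fusion driven by HIV-1 clade B AD8 Env; potency is for inhibitors of fusion seen as a drop in luminescence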
# [8] = Shn3 3'UTR reporter signal decrease – cell-based, Clone20 osteoblasts, firefly luciferase, cherry-pick, set 2, Schnurri-3 inhibitor project, dose response (AID 720490); assay type: functional;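 note: actives lower the luminescence signal as inhibitors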
# [9] = reduction of Shn3 3'UTR-driven luciferase in osteoblasts – cell-based, Clone20 osteoblasts, firefly luciferase, cherry-picked, dose response (AID 624132); assay type: functional;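 note: firefly luciferase luminescence from reporter carrying the Shn3 3'UTR in osteoblasts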
# [10] = non-specific 3'UTR reporter inhibition in Clone20-Shn3RL – cell-based, Renilla luciferase, cherry-picked, counter-screen for Shn3 inhibitor project, dose response (AID 624133); assay type: functional
# [11] = loss of viability in HepG2 cells – cell-based, CellTiter-Glo, cherry-picked, cytotoxicity control for Shn3 inhibitor project, dose response (AID 624134); assay type: functional
# [12] = EF1alpha-driven Renilla reporter with control 3'UTR suppression – Clone20-Shn3RL cells, dual-Glo, cherry-pick, set 2, counter-screen for Shn3 3'UTR targeting project, dose response (AID 720724); assay type: functional, cell-based; settings: Dual-Go Shn3RL
# Cytochrome P450 3A4 = Cytochrome P450 3A4 (Homo sapiens, UniProt P08684);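 note: CYP3A4 tested as one member of a cytochrome P450 panel screen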
# Sequence of Cytochrome P450 3A4 (P08684 whole entry): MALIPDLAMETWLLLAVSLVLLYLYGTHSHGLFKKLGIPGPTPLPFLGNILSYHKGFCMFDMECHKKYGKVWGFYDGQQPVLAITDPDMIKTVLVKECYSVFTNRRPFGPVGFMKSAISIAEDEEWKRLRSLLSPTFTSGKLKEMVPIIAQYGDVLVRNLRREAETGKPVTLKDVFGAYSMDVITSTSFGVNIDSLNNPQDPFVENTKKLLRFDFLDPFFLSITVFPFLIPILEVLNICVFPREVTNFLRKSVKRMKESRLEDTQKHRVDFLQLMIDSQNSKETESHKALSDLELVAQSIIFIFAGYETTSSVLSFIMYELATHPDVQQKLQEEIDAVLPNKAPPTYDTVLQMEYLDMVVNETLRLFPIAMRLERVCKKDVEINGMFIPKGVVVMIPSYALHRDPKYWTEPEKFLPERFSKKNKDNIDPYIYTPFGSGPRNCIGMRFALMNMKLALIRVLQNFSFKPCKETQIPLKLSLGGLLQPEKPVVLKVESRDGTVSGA
# INS1 = assay: INS-1E survival protection against cytokine death – cell-based, luminescence, retest, dose response (AID 449756); assay type: functional; settings: Rattus norvegicus;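 note: cell death triggered by IL-1 beta plus TNF-alpha plus IFN-gamma mixture; protective hits raise ATP signal compared with cytokine alone wells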
# [13] = viability loss in HepG2 hepatoma cells – cell-based, ATP luminescence, cherry-pick, activator set 2, cytotoxicity control, dose response (AID 1053143); assay type: functional
# [14] = target: Dual specificity tyrosine-phosphorylation-regulated kinase 1A (Rattus norvegicus, UniProt Q63470); assay type: biochemical, Homo sapiens
# cells [15] = assay type: functional, cell-based
# cells [16] = assay type: functional, cell-based; remark: listed apart in the source
# [17] = target: Luciferin 4-monooxygenase (Photinus pyralis, UniProt P08659); assay: inhibition of purified Photinus pyralis luciferase – biochemical, luminescence, dose response (AID 1891)
# Sequence of Luciferin 4-monooxygenase (P08659 whole entry): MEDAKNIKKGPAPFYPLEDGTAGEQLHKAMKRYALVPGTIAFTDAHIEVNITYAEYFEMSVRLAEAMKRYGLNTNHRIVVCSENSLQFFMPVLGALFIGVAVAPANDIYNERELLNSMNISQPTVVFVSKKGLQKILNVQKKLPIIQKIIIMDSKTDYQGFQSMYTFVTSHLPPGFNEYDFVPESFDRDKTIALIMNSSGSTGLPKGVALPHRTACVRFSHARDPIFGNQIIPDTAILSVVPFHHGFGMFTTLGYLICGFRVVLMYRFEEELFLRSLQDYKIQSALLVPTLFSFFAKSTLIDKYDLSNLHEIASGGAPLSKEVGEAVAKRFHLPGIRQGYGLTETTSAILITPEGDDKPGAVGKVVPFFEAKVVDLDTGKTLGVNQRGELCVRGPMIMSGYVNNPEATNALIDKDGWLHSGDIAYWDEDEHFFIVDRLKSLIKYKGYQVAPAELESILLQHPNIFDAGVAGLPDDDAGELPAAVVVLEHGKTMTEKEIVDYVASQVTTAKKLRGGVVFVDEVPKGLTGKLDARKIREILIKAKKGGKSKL
# [18] = target: T1, Trace amine-associated receptor 1 (Homo sapiens, UniProt Q96RJ0); assay: Counterscreen for agonists of the human trace amine associated receptor 1 (hTAAR1): Fluorescence-based cell-based high throughput dose response assay to identify hTAAR1 agonist that also desensitize TAAR1 receptor response.; assay type: functional
# T1 sequence (Q96RJ0 whole entry): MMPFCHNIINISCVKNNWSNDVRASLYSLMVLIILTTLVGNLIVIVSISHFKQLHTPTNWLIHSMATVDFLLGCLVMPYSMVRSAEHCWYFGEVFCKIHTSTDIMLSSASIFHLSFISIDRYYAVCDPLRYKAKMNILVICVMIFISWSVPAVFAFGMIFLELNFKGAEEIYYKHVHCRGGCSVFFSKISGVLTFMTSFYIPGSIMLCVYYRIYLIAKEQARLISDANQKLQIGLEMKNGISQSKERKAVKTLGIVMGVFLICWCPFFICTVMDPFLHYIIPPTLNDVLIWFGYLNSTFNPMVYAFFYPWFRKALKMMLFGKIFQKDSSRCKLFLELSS
# [19] = target: T1, Trace amine-associated receptor 1; assay: Fluorescence-based cell-based high throughput dose response assay to identify agonists of the human trace amine associated receptor 1 (TAAR1).; assay type: functional
# [20] = Luminescence Cell-Based Dose Confirmation HTS to Identify Inhibitors of Platelet Dense Granule Release. [Related pubchem assays: 1663 (Primary HTS), 1678 (Summary of Project)]; assay type: functional
# [21] = OV-90 cell viability loss – plate reader, dry powder, SA8, PAX8 inhibitor project, dose response (AID 743149); assay type: functional, cell-based
# [22] = OVCAR-3 cell viability loss – plate reader, dry powder samples, PAX8 inhibitor project, dose response (AID 743044); assay type: functional, cell-based
# Paired box protein Pax-8 = Paired box protein Pax-8 (Homo sapiens, UniProt Q06710); assay: PAX8 transcriptional activity inhibition in RMG-I – RMG-I cells, luciferase, cherry-pick, dose response (AID 687027); assay type: functional, cell-based;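 note: luciferase reporter driven by Pax8 target thyroperoxidase promoter measured by SteadyGlo luminescence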
# Sequence of Paired box protein Pax-8 (Q06710 whole entry): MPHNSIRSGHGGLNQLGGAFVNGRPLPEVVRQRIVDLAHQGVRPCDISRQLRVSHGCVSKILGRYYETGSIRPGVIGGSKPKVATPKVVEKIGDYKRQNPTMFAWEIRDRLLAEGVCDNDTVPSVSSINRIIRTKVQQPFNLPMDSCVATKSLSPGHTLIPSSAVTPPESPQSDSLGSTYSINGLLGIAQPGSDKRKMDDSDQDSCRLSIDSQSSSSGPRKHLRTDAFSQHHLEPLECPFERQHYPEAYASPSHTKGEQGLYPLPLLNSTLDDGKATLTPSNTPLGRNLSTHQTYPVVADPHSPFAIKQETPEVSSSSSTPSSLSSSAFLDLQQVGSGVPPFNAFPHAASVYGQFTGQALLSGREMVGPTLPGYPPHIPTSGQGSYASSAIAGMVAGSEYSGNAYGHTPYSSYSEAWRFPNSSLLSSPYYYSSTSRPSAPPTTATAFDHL
# [23] = OVCAR4 cell viability loss – plate reader, dry powder, SA11, cytotoxicity control for PAX8 inhibitor project, dose response (AID 743150); assay type: functional, cell-based; settings: OVCAR-4
# cells [24] = assay type: functional, cell-based; remark: listed apart in the source
# cells [25] = assay type: functional, cell-based; remark: listed apart in the source
# [26] = general cell-killing toxicity readout – plate reader, dry powder samples, cytotoxicity control for PAX8 inhibitor project, dose response (AID 743021); assay type: functional, cell-based
# [27] = PAX8-dependent cell viability loss – plate reader, dry powder, dose response (AID 743049); assay type: functional, cell-based
# [28] = IGROV1 cell killing – plate reader, dry powder samples, PAX8 inhibitor project, dose response (AID 743043); assay type: functional, cell-based; settings: IGROV-1
# [29] = viability loss in HEK293T cells – cell-based, cherry-picks, cytotoxicity control for HIV Vif inhibitor project, dose response (AID 652208); assay type: functional
# [30] = toxicity toward immortalized ovarian surface epithelium – cell-based, plate reader, dry powder samples, cytotoxicity control for PAX8 inhibitor project, dose response (AID 743045); assay type: functional
# [31] = COV362 cell viability loss – plate reader, dry powder, SA12, cytotoxicity control for PAX8 inhibitor project, dose response (AID 743144); assay type: functional, cell-based
# [32] = COV434 cell viability loss – plate reader, dry powder, SA7, cytotoxicity control for PAX8 inhibitor project, dose response (AID 743145); assay type: functional, cell-based
# cells [33] = settings: A549
# HEK293 = assay: viability loss in HEK293T cells – cell-based, ATP luminescence, cherry-pick samples, cytotoxicity control, dose response (AID 687005); assay type: functional; settings: Homo sapiens;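 note: cells exposed to compound for 48 hours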
# [34] = HEK293 Cytotoxicity Assay Measured in Cell-Based System Using Plate Reader - 7071-01_Inhibitor_Dose_CherryPick_Activity_Set2.; assay type: functional
# HeLa = assay: viability loss in HeLa cells – cell-based, ATP luminescence, cherry-pick samples, cytotoxicity control, dose response (AID 687004); assay type: functional; settings: Homo sapiens
# [35] = Late stage assay provider results from the probe development effort to identify inhibitors of the Plasmodium falciparum M17 Leucine Aminopeptidase (M17LAP): radiolabel-based cell-based dose response assay to identify compounds that inhibit P. falciparum growth in RBCs Set 2.; assay type: functional
# [36] = viability loss in HepG2 hepatoma cells – cell-based, cherry-picks, set 5, cytotoxicity control, dose response (AID 1053118); assay type: functional
# [37] = T. cruzi growth inhibition in host cells, dose response, cell-based, plate reader, dry powder, set 2 (AID 652275); assay type: functional
# [38] = cytotoxicity in MITF-independent A375 cells – cell-based, CellTiter-Glo luminescence, dry powder, set 4, counter-screen for MITF inhibitor project, dose response (AID 624364); assay type: functional; settings: A-375;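 note: A375 melanoma cells are MITF independent so this is a counter screen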
# [39] = viability loss in MITF-independent A375 cells – cell-based, CellTiter-Glo luminescence, dry powder, set 2, counter-screen for MITF inhibitor project, dose response (AID 624489); assay type: functional; settings: A-375;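 note: actives are compounds lowering A375 viability meaning general cytotoxicity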
# [40] = Late stage assay provider results from the probe development effort to identify selective inhibitors of heat shock protein 90 (HSP90): Absorbance-based cell proliferation assay in MCF7 cells.; assay type: functional
# [41] = Late stage assay provider results from the probe development effort to identify selective inhibitors of heat shock protein 90 (HSP90): Absorbance-based cell proliferation assay in SKBR3 cells.; assay type: functional; settings: SK-BR-3
# [42] = mouse embryonic fibroblast toxicity – cell-based, plate reader, dry powder, set 2, cytotoxicity control, dose response (AID 652280); assay type: functional; settings: NIH3T3
# [43] = viability loss in CEM21 cells – cell-based, plate reader, dry powder, cytotoxicity control, dose response (AID 687026); assay type: functional
# [44] = inhibition of Env-driven cell fusion – HIV entry, plate reader, dry powder, dose response (AID 687023); assay type: functional, cell-based
# Sequence of Kallikrein-7 (P49862 whole entry): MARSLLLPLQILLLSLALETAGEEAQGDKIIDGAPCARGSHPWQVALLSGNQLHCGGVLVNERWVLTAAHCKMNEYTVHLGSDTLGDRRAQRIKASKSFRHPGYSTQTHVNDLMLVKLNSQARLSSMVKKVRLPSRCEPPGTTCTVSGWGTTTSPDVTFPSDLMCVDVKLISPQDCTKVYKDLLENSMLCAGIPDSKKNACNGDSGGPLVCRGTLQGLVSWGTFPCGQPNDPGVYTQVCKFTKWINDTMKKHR
compound,measurement,setting,value
COc1ccc(-c2cc(-c3ccccc3)n3ncnc3n2)cc1,EC50,Kallikrein-7,> 69.5 µM (inactive)
same,EC50,[1],> 7.72 µM (active)
Cc1cc(CSc2ccccc2)ccc1NC(=O)c1ccc(CN2CCOCC2)cc1,IC50,[2],> 80 µM (inactive)
same,EC50,cells [3],> 29.9 µM (inactive)
same,AC50,[4],7.59 µM (active)
same,AC50,[5],2.17 µM (active)
same,AC50,[6],1.75 µM (active)
same,IC50,Jurkat,> 80 µM (inactive)
same,IC50,Galanin receptor type 3,0.322 µM (active)
same,AC50,[7],5.87 µM (active)
Cc1ccc(-c2csc(N3CCC(NS(=O)(=O)c4ccc5c(c4)OCCO5)CC3)n2)cc1,AC50,[8],3.03 µM (active)
same,AC50,[9],2.15 µM (active)
same,AC50,[10],15 µM (active)
same,AC50,[11],> 70 µM (inactive)
same,AC50,[12],21.6 µM (active)
same,AC50,Cytochrome P450 3A4,inconclusive
same,AC50,INS1,5.51 µM (active)
Nc1nc(Nc2ccccc2)nc2ccccc12,AC50,[13],26 µM (active)
same,AC50,[14],4.92 µM (active)
same,EC50,cells [15],> 29.9 µM (inactive)
same,IC50,cells [16],> 29.9 µM (inactive)
same,EC50,[17],1.25 µM (active)
same,IC50,[18],0.444 µM (active)
same,EC50,[19],0.16 µM (active)
same,EC50,[20],2.06 µM (active)
COc1ccc(-c2cc(C(F)(F)F)nc(S(=O)(=O)CCCC(=O)Nc3cc(C)on3)n2)cc1OC,AC50,[21],30.1 µM (active)
same,AC50,[22],20.7 µM (active)
same,AC50,Paired box protein Pax-8,9.94 µM (active)
same,AC50,[23],27.7 µM (active)
same,EC50,cells [24],> 350 µM (not active)
same,EC50,cells [25],> 350 µM (not active)
same,AC50,[26],23.1 µM (active)
same,AC50,[27],16.2 µM (active)
same,AC50,[28],13.4 µM (active)
same,AC50,[29],13.7 µM (active)
same,AC50,[30],29.4 µM (active)
same,AC50,[31],21.2 µM (active)
same,AC50,[32],15.2 µM (active)
N#C/C(=C\c1ccco1)C(=O)Nc1cccc2ncccc12,AC50,cells [33],> 52 µM (inactive)
COc1ccccc1C(=O)Nc1ccc2c(c1)C(=O)N(C)C[C@H](OC)[C@@H](C)CN(CC1CC1)[C@@H](C)CO2,AC50,HEK293,24.1 µM (active)
same,AC50,[34],24.1 µM (active)
same,AC50,HeLa,> 52 µM (inactive)
Cc1ccc(CC(=O)NO)cc1,IC50,[35],16.3 µM (inactive)
N#C[C@H]1[C@@H](c2ccccc2C2=CCCCC2)[C@@H](CO)N1S(=O)(=O)c1ccccc1,AC50,[36],> 47 µM (inactive)
CC(c1ccc(Cl)cc1)N(C)C[C@@H]1CN(C(C)C)C(=O)c2cccc(NC(=O)c3ccncc3)c2O1 (some centres not stated),AC50,[37],0.0548 µM (active)
CN1CCN(C2=C(NS(=O)(=O)c3ccc(Br)cc3)C(=O)c3ccccc3C2=O)CC1,AC50,[38],> 70 µM (inactive)
same,AC50,[39],> 70 µM (inactive)
COc1ccc(N/C=C2\C(=O)OC(=O)c3ccccc32)cc1,IC50,[40],> 100 µM (inactive)
same,IC50,[41],> 100 µM (inactive)
Cc1cccc(-c2ccc([C@H]3[C@H](CO)N4CCCCN(Cc5ccncc5)C[C@@H]34)cc2)c1,AC50,[42],8.54 µM (active)
Cc1noc(C)c1S(=O)(=O)Nc1cccc2c1O[C@H](CN(C)Cc1ccc(C(F)(F)F)cc1)[C@H](C)CN([C@@H](C)CO)C2=O,AC50,[43],> 70 µM (inactive)
same,AC50,[44],10.6 µM (active)
